Measurements reported in US12590126B2, “Compounds for selective disruption of protein-protein interactions” (SyntheX, Inc., priority 2017, dated 2026).
Like-named read-outs stand apart in the source and are kept apart here. Blank lines part the entries; values can stand above or below the compound they belong to. Where a SMILES comes first, the peptide text is derived from it. [ ]: non-standard residue; d: D form. 2Nal = N[C@@H](Cc1ccc2ccccc2c1)C(=O)O; dNle = CCCC[C@@H](N)C(=O)O; dAbu = CC[C@@H](N)C(=O)O; Ahx = NCCCCCC(=O)O; βAla = NCCC(=O)O

Tests used:
[1] = system: fresh human RBCs; type: cell-based; details: red cells of human, 1 h, 250
Experimental: To assess the nonspecific lytic properties of each compounds disclosed herein, each mentioned compound was tested for hemolytic properties against fresh human RBCs. Briefly, donor blood was drawn into a K2EDTA anticoagulant tube from multiple O+ donors. The blood was washed 3 times in PBS. RBCs were diluted to 2% in PBS and compounds were added at various concentrations. Samples were incubated at 37 C for 1 hr, then centrifuged at 2200 rpm for 5 min. Supernatants were measured for absorbance at 450 nm or 405 nm. The percentage hemolysis was calculated as lysis relative to 1% Triton X-100 incubation.

[2] = system: SSP-25 cells; experiment: xCELLigence cell death assay in SSP-25 cells (cellular assay for RAD51 inhibition); type: cell-based; details: concentration gradient added at 20 hour mark, only values with R^>0.85 shown
Experimental: The efficacy of the peptides described herein was assessed by their ability to cause death in SSP-25 cells, which have amplification of RAD51 and are dependent on its activity.
First, 5,000 SSP25 cells were plated, and adherence and growth was measured for 20 hours using live measurements of current impedance through the plate using the xCELLigence™ instrument. At the 20 hour mark, a concentration gradient of each compound or a PBS control was added to the SSP-25 cells, which were cultured in […] RMPI media with 10% FBS. […] Only values with confidence and R^>0.85 are shown.

[3] = in vitro; details: mouse, serum
Experimental: Serum stability data was obtained using the appropriate animal serum, each incubated with the compound for up to two hours at 37 C.

[4] = in vitro; details: mouse, microsomes
Experimental: (§1) For HLM and MLM stability studies, each compound was incubated with the liver microsome mixture for up to an hour at 37 C in the presence of NADPH.
(§2) After the incubations, the reactions were stopped and the compounds were analyzed according to the method developed for each.

[5] = in vitro; details: human, microsomes
Experimental: as §1, §2

[6] = Mouse pharmacokinetics, IV and IP dosing; type: in vivo, mice; details: for AUC(0-inf) / AUC(0-t) / C0 / MRT inf / clearance / Vd / half-life: in vivo
Experimental: The pharmocokinetic parameters in mice by both intravenous (IV) and intraperitoneal (IP) dosing, as well as the serum and microsome stability for each of compound 22, 23, 24, and 25 was determined. Bioanalytical methods were developed for each compound using an LC-MS/MS method with LLOQ>100 ng/ml.
For in-vivo PK work, at least 3 mice were used per timepoint. For each compound, the animals were injected either IV or IP with the compound. IV injections used 1 mg/kg, and IP injections were at 15 mg/kg. Blood was collected at the indicated timepoints and analyzed according to the bioanalytical method developed.

[7] = iv, 1 mg/kg, 1 mg/kg IV, read-out: Vss
[8] = iv, 1 mg/kg, 1 mg/kg IV, read-out: Vz
[9] = iv, 1 mg/kg, 1 mg/kg IV, read-out: t½ (converted)
[10] = iv, 1 mg/kg, IV (1 mg/kg), read-out: Half-life Mouse IV

SMILES: CCCC[C@@H](NC(=O)[C@@H](CC(C)C)NC(C)=O)C(=O)N[C@H](CCCNC(=N)N)C(=O)N[C@H](CO)C(=O)N[C@@H](C(=O)N[C@H](CCCNC(=N)N)C(=O)N[C@H](CC(C)C)C(=O)N[C@H](CCCNC(=N)N)C(=O)N[C@@H](C(=O)NCC(=O)N[C@H](CC(C)C)C(=O)N[C@H](CCCNC(=N)N)C(=O)N[C@H](CCCNC(=N)N)C(=O)N[C@H](CCCNC(=N)N)C(=O)N[C@H](CCCNC(=N)N)C(=O)N[C@H](CCCNC(=N)N)C(=O)N[C@H](CCCNC(=N)N)C(=O)N(C)CC(=O)N(C)CC(=O)OC)C(C)C)C(C)C [Compound 21, Ac-l{d-norLeucine}rsvrlrvGlrrrrrr-sarcosine-sarcosine-OMe]
- % Hemolysis (250 uM) [1]: 31%
- IC50 [2]: 25 µM

SMILES: CCCC[C@@H](NC(=O)[C@@H](CC(C)C)NC(C)=O)C(=O)N[C@H](CCCNC(=N)N)C(=O)N[C@H](CO)C(=O)N[C@@H](C(=O)N[C@H](CCCNC(=N)N)C(=O)N[C@H](CC(C)C)C(=O)N[C@H](CCCNC(=N)N)C(=O)N[C@@H](C(=O)NCCC(=O)N[C@H](CC(C)C)C(=O)N[C@H](CCCNC(=N)N)C(=O)N[C@H](CCCCN)C(=O)N[C@H](CCCNC(=N)N)C(=O)N[C@H](CCCNC(=N)N)C(=O)N[C@H](CCCNC(=N)N)C(=O)N[C@H](CCCNC(=N)N)C(=O)N[C@H](CCCNC(=N)N)C(=O)NCC(=O)N[C@@H](Cc1ccc2ccccc2c1)C(N)=O)C(C)C)C(C)C [Compound 17, Ac-l{d-norLeucine}rsvdrv[beta-ALA]lrkrrrrrGΦ-NH2] (Ac-[dL][dNle][dR][dS][dV][dR][dL][dR][dV][βAla][dL][dR][dK][dR][dR][dR][dR][dR]G[2Nal]-NH2)
- % Hemolysis (250 uM) [1]: 32%
- IC50 [2]: 20 µM

SMILES: CCCC[C@@H](NC(=O)[C@@H](CC(C)C)NC(C)=O)C(=O)N[C@H](CCCNC(=N)N)C(=O)N[C@H](CC)C(=O)N[C@@H](C(=O)N[C@H](CCCNC(=N)N)C(=O)N[C@H](CC(C)C)C(=O)N[C@H](CCCNC(=N)N)C(=O)N[C@@H](C(=O)NCC(=O)N[C@H](CC(C)C)C(=O)N[C@H](CCCNC(=N)N)C(=O)N[C@H](CCCCN)C(=O)N[C@H](CCCNC(=N)N)C(=O)N[C@H](CCCNC(=N)N)C(=O)N[C@H](CCCNC(=N)N)C(=O)N[C@H](CCCNC(=N)N)C(=O)N[C@H](CCCNC(=N)N)C(=O)NCC(=O)N[C@@H](Cc1ccc2ccccc2c1)C(N)=O)C(C)C)C(C)C [Compound 15, Ac-l{d-norLeucine}r(abu)vrlrvGlrkrrrrrGΦ-NH2] (Ac-[dL][dNle][dR][dAbu][dV][dR][dL][dR][dV]G[dL][dR][dK][dR][dR][dR][dR][dR]G[2Nal]-NH2)
- % Hemolysis (250 uM) [1]: 49%
- IC50 [2]: 7.2 µM

- half-life [3]: > 500 min
- half-life [4]: 41.8 min
- half-life [5]: 108 min
- AUC Extr ([6]; 1 mg/kg IV): 28.5%
- AUC(0-inf) ([6]; 1 mg/kg IV): 490 ng·h/mL
- AUC(0-t) ([6]; 1 mg/kg IV): 347 ng·h/mL
- C0 ([6]; 1 mg/kg IV): 1480 ng/mL
- MRT inf ([6]; 1 mg/kg IV): 44.3 min
- clearance ([6]; 1 mg/kg IV): 36.1 mL/min/kg
- AUC(0-inf) ([6]; 15 mg/kg IP): 341 ng·h/mL
- MRT inf ([6]; 15 mg/kg IP): 394 min
- Vd [6, 7]: 1.56 L/kg
- Vd [6, 8]: 1.71 L/kg
- half-life [6, 9]: 33.9 min
- half-life [6, 10]: 33.8 min
SMILES: CCCC[C@@H](NC(=O)[C@@H](CC(C)C)NC(C)=O)C(=O)N[C@H](CCCNC(=N)N)C(=O)N[C@H](C)C(=O)N[C@@H](C(=O)N[C@H](CCCNC(=N)N)C(=O)N[C@H](CC(C)C)C(=O)N[C@H](CCCNC(=N)N)C(=O)N[C@@H](C(=O)NCCC(=O)N[C@H](CC(C)C)C(=O)N[C@H](CCCNC(=N)N)C(=O)NCCCCCC(=O)N[C@H](CCCNC(=N)N)C(=O)NCCCCCC(=O)N[C@H](CCCNC(=N)N)C(=O)NCCCCCC(=O)N[C@H](CCCNC(=N)N)C(=O)NCCCCCC(=O)N[C@H](CCCNC(=N)N)C(=O)NCCCCCC(=O)N[C@H](CCCNC(=N)N)C(N)=O)C(C)C)C(C)C [Compound 23, Ac-l{d-norLeucine}ravrlrv[beta-ALA]lr(Ahx)r(Ahx)r(Ahx)r(Ahx)r(Ahx)r-NH2] (Ac-[dL][dNle][dR][dA][dV][dR][dL][dR][dV][βAla][dL][dR][Ahx][dR][Ahx][dR][Ahx][dR][Ahx][dR][Ahx][dR]-NH2)
- % Hemolysis (250 uM) [1]: 3%
- IC50 [2]: 20.6 µM

- half-life [3]: > 500 min
- half-life [4]: 46.2 min
- half-life [5]: 81.5 min
- AUC Extr ([6]; 1 mg/kg IV): 16.8%
- Vss ([6]; 15 mg/kg IP): 3.41 L/kg
- AUC(0-inf) ([6]; 1 mg/kg IV): 308 ng·h/mL
- AUC(0-t) ([6]; 1 mg/kg IV): 254 ng·h/mL
- C0 ([6]; 1 mg/kg IV): 750 ng/mL
- MRT inf ([6]; 1 mg/kg IV): 33.1 min
- clearance ([6]; 1 mg/kg IV): 55.7 mL/min/kg
- AUC(0-inf) ([6]; 15 mg/kg IP): 831 ng·h/mL
- MRT inf ([6]; 15 mg/kg IP): 1310 min
- half-life ([6]; ip, 15 mg/kg, 15 mg/kg IP, read-out: t½ (converted)): 128 min
- half-life ([6]; ip, 15 mg/kg, IP (15 mg/kg), read-out: Half-life Mouse IP): 128 min
- Vd [6, 7]: 1.8 L/kg
- Vd [6, 8]: 1.99 L/kg
- half-life [6, 9]: 25.4 min
- half-life [6, 10]: 25.4 min
SMILES: CCCC[C@@H](NC(=O)[C@@H](CC(C)C)NC(C)=O)C(=O)N[C@H](CCCNC(=N)N)C(=O)N[C@H](CO)C(=O)N[C@@H](C(=O)N[C@H](CCCNC(=N)N)C(=O)N[C@H](CC(C)C)C(=O)N[C@H](CCCNC(=N)N)C(=O)N[C@@H](C(=O)NCC(=O)N[C@H](CC(C)C)C(=O)N[C@H](CCCNC(=N)N)C(=O)NCCCCCC(=O)N[C@H](CCCNC(=N)N)C(=O)NCCCCCC(=O)N[C@H](CCCNC(=N)N)C(=O)NCCCCCC(=O)N[C@H](CCCNC(=N)N)C(=O)NCCCCCC(=O)N[C@H](CCCNC(=N)N)C(=O)NCCCCCC(=O)N[C@H](CCCNC(=N)N)C(N)=O)C(C)C)C(C)C [Compound 25, Ac-l{d-norLeucine}rsvrlrvGlr(Ahx)r(Ahx)r(Ahx)r(Ahx)r(Ahx)r-NH2]
- % Hemolysis (250 uM) [1]: 4%
- IC50 [2]: 14 µM

SMILES: CCCC[C@@H](NC(=O)[C@@H](CCCNC(=N)N)NC(=O)[C@@H](CC(C)C)NC(=O)[C@@H](CCCNC(=N)N)NC(=O)[C@@H](CCCNC(=N)N)NC(=O)[C@@H](CC)NC(=O)[C@@H](CCCNC(=N)N)NC(=O)[C@@H](CCCC)NC(=O)[C@@H](CC(C)C)NC(C)=O)C(=O)NCCC(=O)N[C@H](CC(C)C)C(=O)N[C@H](CCCNC(=N)N)C(=O)N[C@H](CCCCN)C(=O)N[C@H](CCCNC(=N)N)C(=O)N[C@H](CCCNC(=N)N)C(=O)N[C@H](CCCNC(=N)N)C(=O)N[C@H](CCCNC(=N)N)C(=O)N[C@H](CCCNC(=N)N)C(=O)NCC(=O)N[C@@H](Cc1ccc2ccccc2c1)C(N)=O [Compound 18, Ac-l{d-norLeucine}r(abu)rrlr[d-norLeucine][beta-ALA]lrkrrrrrGΦ-NH2] (Ac-[dL][dNle][dR][dAbu][dR][dR][dL][dR][dNle][βAla][dL][dR][dK][dR][dR][dR][dR][dR]G[2Nal]-NH2)
- % Hemolysis (250 uM) [1]: 17%
- IC50 [2]: 17.8 µM

SMILES: CCCC[C@@H](NC(=O)[C@@H](CC(C)C)NC(=O)CN(C)S(=O)(=O)c1cccc2c(N(C)C)cccc12)C(=O)N[C@H](CCCNC(=N)N)C(=O)N[C@H](CO)C(=O)N[C@@H](C(=O)N[C@H](CCCNC(=N)N)C(=O)N[C@H](CC(C)C)C(=O)N[C@H](CCCNC(=N)N)C(=O)N[C@@H](C(=O)NCC(=O)N[C@H](CC(C)C)C(=O)N[C@H](CCCNC(=N)N)C(=O)N[C@H](CCCNC(=N)N)C(=O)N[C@H](CCCNC(=N)N)C(=O)N[C@H](CCCNC(=N)N)C(=O)N[C@H](CCCNC(=N)N)C(=O)N[C@H](CCCNC(=N)N)C(=O)N(C)CC(=O)N(C)CC(=O)OC)C(C)C)C(C)C [Compound 20, DANSYL-Sarcosine-l{d-norLeucine}rsvrlrvGlrrrrrr-sarcosine-sarcosine-OMe]
- % Hemolysis (250 uM) [1]: 84%
